These are literature values, as cited in US8617560B2, “Peptides for vaccination against human CMV” (priority 1999, dated 2013).

In this series the test system is cytomegaloviruses. As to conditions: background statement, Lutz Schneider 1991.

Turning to `O=C(O)P(=O)(O)O` [Foscarnet], the effect on cytomegaloviruses result is on record as “virostatic effect”.
